pEC50: −log10 of the molar value. Values after ≈ are worked out from the molar mass of the structure shown. Where two headings read alike, the source gives them in different places.
Experiments:
HBV = HBV DNA Quantification Assay; assay type: cell-based
Method: A HepG2 cell line overexpressing the HBV virus attachment receptor sodium-taurocholate cotransporting polypeptide (NTCP) was grown to confluency in DMEM growth medium, Dulbecco's Modified Eagle Medium without sodium pyruvate (Life Technologies, Rockville, Md.) supplemented with 10% FBS (Thermo Scientific, Waltham, Md.), 1% penicillin/streptomycin (Life Technologies, Rockville, Md.) and 2 mM L-glutamine (Life Technologies, Rockville, Md.) in T175 flasks. Cells were infected with HBV AD38 viral particles (Texcell, Frederick, USA) at 4000 genome equivalents per cell. After allowing viral infection to take place for 4 days, the infected cells were harvested from the flasks by trypsinization, washed twice with OptiMEM (Life Technologies, Rockville, Md.) and re-suspended in DMEM containing 2% FBS and 1% DMSO at a density of 0.25E6 cells/ml. Infected cells were seeded on 384 well collagen coated plates (Greiner, Austria) at a density of 20,000 cells/well containing serially diluted compounds of the present disclosure or DMSO (0.5%) in a final volume of 80 μl. The assay plates were incubated for a period of 5 days and the antiviral activity of the test compounds were assayed by detecting the presence of HBV DNA in the culture supernatant using the QuantiGene™ 2.0 nucleic acid quantification kit (Affymetrix, Santa Clara, Calif.).
The culture supernatant was harvested and treated with lysis buffer containing Proteinase K (Affymetrix, Santa Clara, Calif.). The supernatant was incubated with HBV viral DNA specific probes (Affymetrix, Santa Clara, Calif.) for 30 minutes at 55° C. This was followed by addition of 0.2M NaOH for 30 minutes at room temperature to denature the DNA, followed by addition of Neutralization buffer (Affymetrix, Santa Clara, Calif.). The resulting lysed and neutralized supernatant was then added to QuantiGene™ 2.0 384 well plates coated with capture oligonucleotides and incubated overnight at 55° C. The HBV specific probe set consists of Capture Extender oligonucleotides (CE's) and blocking probes. Following the overnight incubation, the wells were incubated for one hour sequentially with a Pre-Amplifier, Amplifier and Labeled probes conjugated to alkaline phosphatase with a wash step between incubations. After the final wash step, the alkaline phosphatase substrate (Luminol APS5) was added and the resulting luminescence signal was read in an EnVision Multilabel Plate Reader (PerkinElmer, Santa Clara, Calif.). The EC50 values were calculated from the fit of the dose-response curves to a four-parameter equation. All EC50 values represent geometric mean values of a minimum of four determinations.

Kinetic Solubility = assay type: physicochemical; conditions: 0.2 to 100 μM, BD Gentest Solubility Scanner
Method: The 10 mM DMSO stock solution of the test compound is serially diluted into a 96-well “DMSO stock dilution plate”. Then Pipette 2 μL from the DMSO stock dilution plate into the “Sample plate” and dilute with 198 µL of the assay media to generate the final concentrations of the test compound ranging from 0.2 to 100 μM. The “Sample plate” is run on a BD Gentest Solubility Scanner.

[1] = Hepatitis B virus, 120 h, HepG2 cell line overexpressing NTCP infected with HBV AD38 viral particles, HBV DNA in culture supernatant after 5 days, geometric mean of a minimum of four determinations, read-out: EC50
[2] = aqueous buffer, kinetic from dmso stock, pH = 7, read-out: Kinetic Solubility at pH = 7
[3] = simulated gastric fluid, kinetic from dmso stock, pH = 1, read-out: Kinetic Solubility at pH = 1
[4] = assay media at pH 1 (composition not named), simulated gastric fluid, kinetic from dmso stock, pH = 1, read-out: Kinetic Solubility at pH = 1
[5] = assay media at pH 7 (composition not named), aqueous buffer, kinetic from dmso stock, pH = 7, read-out: Kinetic Solubility at pH = 7

What does the source list for `Cc1c(C(=O)Nc2ccc(F)c(C#N)c2)c2n(c1C(=O)C(=O)NC1(c3cnn[nH]3)CC(F)(F)C1)CCC2` [Example 15, N-(3-cyano-4-fluorophenyl)-5-(2-((3,3-difluoro-1-(1H-1,2,3-triazol-4-yl)cyclobutyl)amino)-2-oxoacetyl)-6-methyl-2,3-dihydro-1H-pyrrolizine-7-carboxamide]?
pEC50 (HBV; [1]): 8.28; solubility kinetic (Kinetic Solubility; [2]): 13.9 µM (≈ 7.11 µg/mL); solubility kinetic (Kinetic Solubility; [3]): 13.5 µM (≈ 6.9 µg/mL)

With `Cc1c(C(=O)Nc2ccc(F)c(F)c2)c2n(c1C(=O)C(=O)NC1(c3cnn[nH]3)CC(F)(F)C1)C[C@H]1C[C@@H]21` [Example 25, (1aS,6bR)-4-(2-((3,3-difluoro-1-(1H-1,2,3-triazol-5-yl)cyclobutyl)amino)-2-oxoacetyl)-N-(3,4-difluorophenyl)-5-methyl-1,1a,2,6b-tetrahydrocyclopropa[a]pyrrolizine-6-carboxamide] as the molecule, how does the pEC50 (HBV; [1]) read?
Its pEC50 is 8.72.

What about the solubility kinetic (Kinetic Solubility; [2]) of the same molecule?
The solubility kinetic was 65 µM (≈ 33.6 µg/mL).

And the solubility kinetic (Kinetic Solubility; [3])?
Its solubility kinetic is 72.6 µM (≈ 37.5 µg/mL).

With `CNC(=O)C1(NC(=O)C(=O)c2c(C)c(C(=O)Nc3cc(F)c(F)c(F)c3)c3n2CCC3)CC(F)(F)C1` [Example 42, 5-(2-((3,3-difluoro-1-(methylcarbamoyl)cyclobutyl)amino)-2-oxoacetyl)-6-methyl-N-(3,4,5-trifluorophenyl)-2,3-dihydro-1H-pyrrolizine-7-carboxamide] as the molecule, how does the pEC50 (HBV; [1]) read?
The pEC50 was 7.90.

And the solubility kinetic (Kinetic Solubility; [2])?
The solubility kinetic was 29.6 µM (≈ 15.2 µg/mL).

And the solubility kinetic (Kinetic Solubility; [3])?
The solubility kinetic was 37.5 µM (≈ 19.2 µg/mL).

With `Cc1c(C(=O)Nc2cc(F)c(F)c(F)c2)c2n(c1C(=O)C(=O)NC1(c3nncs3)CC(F)(F)C1)CCC2` [Example 1, 5-(2-((3,3-difluoro-1-(1,3,4-thiadiazol-2-yl)cyclobutyl)amino)-2-oxoacetyl)-6-methyl-N-(3,4,5-trifluorophenyl)-2,3-dihydro-1H-pyrrolizine-7-carboxamide] as the molecule, how does the pEC50 (HBV; [1]) read?
The pEC50 was 8.60.

And the solubility kinetic (Kinetic Solubility; [2])?
Its solubility kinetic is 1.7 µM (≈ 0.917 µg/mL).

What about the solubility kinetic (Kinetic Solubility; [3]) of the same molecule?
The solubility kinetic was less than 1 µM.

With `Cc1c(C(=O)Nc2ccc(F)cc2)c2n(c1C(=O)C(=O)NC1(c3cnn[nH]3)CC(F)(F)C1)CCC2` [Example 17, 5-(2-((3,3-difluoro-1-(1H-1,2,3-triazol-4-yl)cyclobutyl)amino)-2-oxoacetyl)-N-(4-fluorophenyl)-6-methyl-2,3-dihydro-H-pyrrolizine-7-carboxamide] as the molecule, how does the pEC50 (HBV; [1]) read?
Its pEC50 is 8.39.

What about the solubility kinetic (Kinetic Solubility; [2]) of the same molecule?
Its solubility kinetic is 77.8 µM (≈ 37.8 µg/mL).

And the solubility kinetic (Kinetic Solubility; [3])?
Its solubility kinetic is 70.2 µM (≈ 34.1 µg/mL).

With `Cc1c(C(=O)Nc2ccc(F)c(C(F)F)c2)c2n(c1C(=O)C(=O)NC1(c3nncs3)CC1)CCC2` [Example 31] as the molecule, how does the pEC50 (HBV; [1]) read?
Its pEC50 is 7.78.

What about the solubility kinetic (Kinetic Solubility; [2]) of the same molecule?
The solubility kinetic was 6.3 µM (≈ 3.17 µg/mL).

And the solubility kinetic (Kinetic Solubility; [3])?
Its solubility kinetic is 23.1 µM (≈ 11.6 µg/mL).

With `CNC(=O)C1(NC(=O)C(=O)c2c(C)c(C(=O)Nc3ccnc(C(F)F)c3F)c3n2CCC3)CC(F)(F)C1` [Example 20, 5-(2-((3,3-difluoro-1-(methylcarbamoyl)cyclobutyl)amino)-2-oxoacetyl)-N-(2-(difluoromethyl)-3-fluoropyridin-4-yl)-6-methyl-2,3-dihydro-1H-pyrrolizine-7-carboxamide] as the molecule, how does the pEC50 (HBV; [1]) read?
The pEC50 was 6.30.

And the solubility kinetic (Kinetic Solubility; [2])?
The solubility kinetic was 28 µM (≈ 14.8 µg/mL).

And the solubility kinetic (Kinetic Solubility; [3])?
Its solubility kinetic is 26.3 µM (≈ 13.9 µg/mL).

With `Cc1c(C(=O)Nc2ccc(F)cc2)c2n(c1C(=O)C(=O)NC1(c3cnn[nH]3)CC(F)(F)C1)C[C@H]1C[C@@H]21` [Example 14, (1aS,6bR)-4-(2-((3,3-difluoro-1-(1H-1,2,3-triazol-4-yl)cyclobutyl)amino)-2-oxoacetyl)-N-(4-fluorophenyl)-5-methyl-1,1a,2,6b-tetrahydrocyclopropa[a]pyrrolizine-6-carboxamide] as the molecule, how does the pEC50 (HBV; [1]) read?
Its pEC50 is 8.59.

And the solubility kinetic (Kinetic Solubility; [2])?
Its solubility kinetic is 61.4 µM (≈ 30.6 µg/mL).

And the solubility kinetic (Kinetic Solubility; [3])?
The solubility kinetic was 57.1 µM (≈ 28.5 µg/mL).

Which results are given for `Cc1c(C(=O)Nc2ccc(F)c(F)c2)c2n(c1C(=O)C(=O)NC1(c3cnn[nH]3)CC(F)(F)C1)[C@@H]1C[C@@H]1C2` [Example 34, (1aR,6aR)-3-(2-((3,3-difluoro-1-(1H-1,2,3-triazol-5-yl)cyclobutyl)amino)-2-oxoacetyl)-N-(3,4-difluorophenyl)-4-methyl-1,1a,6,6a-tetrahydrocyclopropa[a]pyrrolizine-5-carboxamide]?
pEC50 (HBV; [1]): 7.84; solubility kinetic (Kinetic Solubility; [4]): 51.7 µM (≈ 26.7 µg/mL); solubility kinetic (Kinetic Solubility; [5]): 52.3 µM (≈ 27 µg/mL)

With `Cc1c(C(=O)Nc2ccc(F)cc2)c2n(c1C(=O)C(=O)NC1(c3cn(C)nn3)CC(F)(F)C1)CCC2` [Example 10] as the molecule, how does the pEC50 (HBV; HepG2 cell line overexpressing NTCP infected with HBV AD38 viral particles, HBV DNA in culture supernatant after 5 days, geometric mean of a minimum of four determinations, read-out: EC50) read?
Its pEC50 is 7.48.

And the solubility kinetic (Kinetic Solubility; pH = 1, read-out: Kinetic Solubility at pH = 1)?
The solubility kinetic was 1.4 µM (≈ 0.701 µg/mL).

What about the solubility kinetic (Kinetic Solubility; pH = 7, read-out: Kinetic Solubility at pH = 7) of the same molecule?
The solubility kinetic was 52.8 µM (≈ 26.4 µg/mL).

With `C#CC1(NC(=O)C(=O)c2c(C)c(C(=O)Nc3ccc(F)c(F)c3)c3n2CCC3)CC1` [Example 13] as the molecule, how does the pEC50 (HBV; Hepatitis B virus, HepG2, 120 h) read?
The pEC50 was 8.07.

And the solubility kinetic (Kinetic Solubility; [4])?
The solubility kinetic was 5 µM (≈ 2.06 µg/mL).

What about the solubility kinetic (Kinetic Solubility; [5]) of the same molecule?
The solubility kinetic was 6.4 µM (≈ 2.63 µg/mL).

With `CNC(=O)C1(NC(=O)C(=O)c2c(C)c(C(=O)Nc3ccc(F)c(F)c3)c3n2[C@@H]2C[C@@H]2C3)CC(F)(F)C1` [Example 33] as the molecule, how does the pEC50 (HBV; [1]) read?
The pEC50 was 7.03.

And the solubility kinetic (Kinetic Solubility; [2])?
The solubility kinetic was 92.3 µM (≈ 46.7 µg/mL).

What about the solubility kinetic (Kinetic Solubility; [3]) of the same molecule?
Its solubility kinetic is 92.1 µM (≈ 46.6 µg/mL).

What does the source list for `CNC(=O)C1(NC(=O)C(=O)c2c(C)c(C(=O)Nc3ccc(F)c(C#N)c3)c3n2CCC3)CC(F)(F)C1` [Example 28, N-(3-cyano-4-fluorophenyl)-5-(2-((3,3-difluoro-1-(methylcarbamoyl)cyclobutyl)amino)-2-oxoacetyl)-6-methyl-2,3-dihydro-1H-pyrrolizine-7-carboxamide]?
pEC50 (HBV; [1]): 6.53; solubility kinetic (Kinetic Solubility; [2]): 25.3 µM (≈ 12.7 µg/mL); solubility kinetic (Kinetic Solubility; [3]): 55.7 µM (≈ 27.9 µg/mL)

With `CNC(=O)C1(NC(=O)C(=O)c2c(C)c(C(=O)Nc3ccc(F)c(F)c3)c3n2CCC3)COC1` [Example 38, N-(3,4-difluorophenyl)-6-methyl-5-(2-((3-(methylcarbamoyl)oxetan-3-yl)amino)-2-oxoacetyl)-2,3-dihydro-1H-pyrrolizine-7-carboxamide] as the molecule, how does the pEC50 (HBV; [1]) read?
Its pEC50 is 7.06.

What about the solubility kinetic (Kinetic Solubility; [2]) of the same molecule?
The solubility kinetic was 86.7 µM (≈ 39.9 µg/mL).

And the solubility kinetic (Kinetic Solubility; [3])?
Its solubility kinetic is 88.7 µM (≈ 40.8 µg/mL).

With `Cc1c(C(=O)Nc2ccc(F)c(F)c2)c2n(c1C(=O)C(=O)NC1(c3nncs3)CC1)CCC2` [Example 43, 5-(2-((1-(1,3,4-thiadiazol-2-yl)cyclopropyl)amino)-2-oxoacetyl)-N-(3,4-difluorophenyl)-6-methyl-2,3-dihydro-1H-pyrrolizine-7-carboxamide] as the molecule, how does the pEC50 (HBV; [1]) read?
Its pEC50 is 7.89.

What about the solubility kinetic (Kinetic Solubility; [2]) of the same molecule?
The solubility kinetic was 72.8 µM (≈ 34.3 µg/mL).

And the solubility kinetic (Kinetic Solubility; [3])?
The solubility kinetic was 77.7 µM (≈ 36.6 µg/mL).

With `Cc1c(C(=O)Nc2ccc(F)cc2)c2n(c1C(=O)C(=O)NC1(c3nncs3)CC1)CCC2` [Example 30, 5-(2-((1-(1,3,4-thiadiazol-2-yl)cyclopropyl)amino)-2-oxoacetyl)-N-(4-fluorophenyl)-6-methyl-2,3-dihydro-1H-pyrrolizine-7-carboxamide] as the molecule, how does the pEC50 (HBV; [1]) read?
Its pEC50 is 7.51.

And the solubility kinetic (Kinetic Solubility; [2])?
The solubility kinetic was 13 µM (≈ 5.9 µg/mL).

What about the solubility kinetic (Kinetic Solubility; [3]) of the same molecule?
Its solubility kinetic is greater than 100 µM.

What does the source list for `CNC(=O)C1(NC(=O)C(=O)c2c(C)c(C(=O)Nc3ccc(F)c(F)c3)c3n2C[C@H]2C[C@@H]32)CC(F)(F)C1` [Example 26, (1aS,6bR)-4-(2-((3,3-difluoro-1-(methylcarbamoyl)cyclobutyl)amino)-2-oxoacetyl)-N-(3,4-difluorophenyl)-5-methyl-1,1a,2,6b-tetrahydrocyclopropa[a]pyrrolizine-6-carboxamide]?
pEC50 (HBV; [1]): 7.69; solubility kinetic (Kinetic Solubility; [2]): > 100 µM; solubility kinetic (Kinetic Solubility; [3]): > 100 µM

With `Cc1c(C(=O)Nc2ccc(F)c(C#N)c2)c2n(c1C(=O)C(=O)NC1(c3nncs3)CC(F)(F)C1)CCC2` [Example 2] as the molecule, how does the pEC50 (HBV; [1]) read?
The pEC50 was 8.32.

What about the solubility kinetic (Kinetic Solubility; [2]) of the same molecule?
Its solubility kinetic is 7.4 µM (≈ 3.91 µg/mL).

What about the solubility kinetic (Kinetic Solubility; [3]) of the same molecule?
Its solubility kinetic is 7.8 µM (≈ 4.12 µg/mL).

What does the source list for `CNC(=O)C1(NC(=O)C(=O)c2c(C)c(C(=O)Nc3ccc(F)c(Cl)c3)c3n2CCC3)CC(F)(F)C1` [Example 35]?
pEC50 (HBV; [1]): 7.85; solubility kinetic (Kinetic Solubility; [2]): 3.4 µM (≈ 1.74 µg/mL); solubility kinetic (Kinetic Solubility; [3]): 9.1 µM (≈ 4.65 µg/mL)
